Assay results: patent publication US20150011751A1, “NOVEL TRIAZINE DERIVATIVE” (CARNA BIOSCIENCES, INC., priority 2012, published 2015)

Target: Dephosphorylated BTK (Homo sapiens, UniProt Q06187)
Test: Test of activity inhibition against dephosphorylated BTK (mobility shift assay)
Procedure: Kinase activity was measured by a mobility shift assay (MSA) method using QuickScout Screening Assist (trademark) MSA (commercially available kit, manufactured by Carna Biosciences, Inc.). FITC-labeled SRCtide peptide supplied with the kit was used as a substrate of a kinase reaction.
IC50 value was calculated by regression analysis of the inhibition ratio and the test compound concentration (logarithm).
Dephosphorylated BTK was obtained by adding a A protein phosphatase (Code No. P0753S, manufactured by New England BioLabs Inc.) and MnCl2 to a biotinylated BTK protein BTN-BTK (manufactured by Carna Biosciences, Inc.) enzyme solution so as to adjust the concentrations to 10 U/μg and 2 mM, respectively, reacting the mixture at 4° C. overnight, removing the A protein phosphatase through anti-[sequence]-tag antibody agarose gel chromatography, and performing buffer exchange using 10DG Desalting Column.

Sequence of Dephosphorylated BTK (Q06187 whole entry): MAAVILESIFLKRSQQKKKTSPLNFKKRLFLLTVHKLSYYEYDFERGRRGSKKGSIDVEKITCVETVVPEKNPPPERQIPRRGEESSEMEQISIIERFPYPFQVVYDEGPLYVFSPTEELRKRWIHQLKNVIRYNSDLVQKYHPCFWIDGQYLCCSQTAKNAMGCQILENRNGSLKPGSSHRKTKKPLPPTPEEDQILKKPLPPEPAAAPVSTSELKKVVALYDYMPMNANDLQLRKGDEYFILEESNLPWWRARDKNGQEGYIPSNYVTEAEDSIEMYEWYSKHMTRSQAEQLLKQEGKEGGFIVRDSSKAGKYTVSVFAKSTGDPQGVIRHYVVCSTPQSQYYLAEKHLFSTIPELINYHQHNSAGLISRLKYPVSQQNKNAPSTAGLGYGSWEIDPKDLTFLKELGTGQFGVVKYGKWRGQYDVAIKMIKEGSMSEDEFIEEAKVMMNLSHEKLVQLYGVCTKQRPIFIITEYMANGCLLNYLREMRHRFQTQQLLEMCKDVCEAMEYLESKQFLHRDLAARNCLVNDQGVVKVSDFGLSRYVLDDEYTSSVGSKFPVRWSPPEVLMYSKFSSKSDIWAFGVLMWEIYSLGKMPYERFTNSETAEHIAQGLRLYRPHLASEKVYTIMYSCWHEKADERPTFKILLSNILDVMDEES

Row | Compound | IC50 [nM]
1 | CN1CCN(C)C(c2ccc(Nc3nc(N)nc(-c4cccc(NC(=O)c5cc6c(s5)CCCC6)c4CO)n3)cc2)C1=O (centres unmarked) [Example 130, N-[3-(4-Amino-6-{[4-(1,4-dimethyl-3-oxopipe-razin-2-yl)phenyl]ami-no}-1,3,5-triazin-2-yl)-2-(hydroxymethyl)phenyl]-4,5,6,7-tetra-hydrobenzo[b]thiophene-2-carboxamide] | 0.5
2 | CC(=O)OCc1c(NC(=O)c2ccc(C(C)(C)C)cc2)cccc1-c1nc(N)nc(Nc2ccc(O)cc2)n1 [Example 110, 2-{4-Amino-6-[(4-hydroxy-phenyl)amino]-1,3,5-triazin-2-yl}-6-[4-(tert-butyl)benzamido] benzyl acetate] | 17.9
3 | CCOC(=O)c1cc(Nc2nc(N)nc(-c3cccc(N4CCc5cc(C6CC6)cc(F)c5C4=O)c3CO)n2)cn1C [Example 219, Ethyl 4-({4-amino-6-[3-(6-cyclo-propyl-8-fluoro-1-oxo-3,4-dihydroisoquinolin-2(1H)-yl)-2-(hydroxy-methyl)phenyl]-1,3,5-triazin-2-yl}ami-no)-1-methyl-1H-pyrrole-2-carboxylate] | 0.8
4 | CC(C)n1ccc(Nc2nc(N)nc(-c3cccc(N4CCc5cc(C6CC6)cc(F)c5C4=O)c3CO)n2)c1 [Example 229, 2-(3-{4-Amino-6-[(1-iso-propyl-1H-pyrrol-3-yl)amino]-1,3,5-triazin-2-yl}-2-(hydroxymeth-yl)phenyl)-6-cyclopro-pyl-8-fluoro-3,4-di-hydroisoquinolin-1(2H)-one] | 2.5
5 | Nc1nc(Nc2cnn(CC(=O)N3CCCC3)c2)nc(-c2cccc(N3CCc4cc(C5CC5)cc(F)c4C3=O)c2CO)n1 [Example 260, 2-{3-[4-Amino-6-({1-[2-oxo-2-(pyrrolidin-1-yl)ethyl]-1H-pyrazol-4-yl}amino)-1,3,5-tri-azin-2-yl]-2-(hydroxy-methyl)phenyl}-6-cyclo-propyl-8-fluoro-3,4-dihydroisoquinolin-1 (2H)-one] | 0.9
6 | COc1c(NC(=O)c2ccc(C(C)(C)C)cc2)cccc1-c1nc(N)nc(Nc2ccc(N3CCOCC3)cc2)n1 [Example 96, N-(3-{4-Amino-6-[(4-morpholinophenyl)amino]-1,3,5-triazin-2-yl}-2-methoxyphenyl)-4-(tert-butyl)benzamide] | 7.7
7 | Nc1nc(Nc2ccc(N3CCNCC3)cc2)nc(-c2cccc(NC(=O)c3cc4c(s3)CCCC4)c2CO)n1 [Example 147, N-[3-(4-Amino-6-{[4-(piperazin-1-yl)phenyl]amino}-1,3,5-triazin-2-yl)-2-(hydroxymeth-yl)phenyl]-4,5,6,7-tetra-hydrobenzo[b]thio-phene-2-carboxamide] | 0.3
8 | CN1CCN(C)C(c2ccc(Nc3nc(N)nc(-c4cccc(N5CCc6cc(C7CC7)cc(F)c6C5=O)c4CO)n3)cc2)C1=O (centres unmarked) [Example 47, 2-[3-(5-Amino-6-{[4-(1,4-dimethyl-3-oxopipera-zin-2-yl)phenyl]ami-no}-1,3,5-triazin-2-yl)-2-(hydroxymethyl)phenyl]-6-cyclopropyl-8-fluoro-3,4-dihydro-isoquinolin-1(2H)-one] | 1.6
9 | CC(C)(C)c1ccc(C(=O)Nc2cccc(-c3nc(N)nc(Nc4ccc5c(c4)OCC(=O)N5)n3)c2CO)cc1 [Example 154, N-(3-{4-Amino-6-[(3-oxo-3,4-dihydro-2H-ben-zo[b][1,4]oxazin-7-yl)amino]-1,3,5-triazin-2-yl}-2-(hydroxymeth-yl)benzyl)-4-(tert-bu-tyl)benzamide] | 0.9
10 | CN1CCC(n2cc(Nc3nc(N)nc(-c4cccc(N5CCc6cc(C7CC7)cc(F)c6C5=O)c4CO)n3)cn2)CC1 [Example 252, 2-[3-(4-Amino-6-{[1-(1-methylpiperidin-4-yl)-1H-pyrazol-4-yl]ami-no}-1,3,5-triazin-2-yl)-2-(hydroxymethyl)phenyl]-6-cyclopropyl-8-fluoro-3,4-dihydro-isoquinolin-1(2H)-one] | 0.8
11 | Cc1nccn1-c1ccc(Nc2nc(N)nc(-c3cccc(NC(=O)c4ccc(C(C)(C)C)cc4)c3CO)n2)cc1 [Example 172, N-[3-(4-Amino-6-{[4-(2-methyl-1H-imidazol-1-yl)phenyl]amino}-1,3,5-triazin-2-yl)-2-(hy-droxymethyl)phenyl]-4-(tert-butyl)benzamide] | 0.6
12 | CNC(=O)c1cc(Nc2nc(N)nc(-c3cccc(N4CCc5cc(C6CC6)cc(F)c5C4=O)c3CO)n2)cn1C [Example 232, 4-({4-Amino-6-[3-(6-cyclo-propyl-8-fluoro-1-oxo-3,4-dihydroisoquinolin-2(1H)-yl)-2-(hy-droxymethyl)phenyl]-1,3,5-triazin-2-yl}ami-no)-N,1-dimethyl-1H-pyrrole-2-carboxamide] | 0.7
13 | CC(C)(C)c1ccc(C(=O)Nc2cccc(-c3nc(N)nc(Nc4ccc(S(=O)(=O)N5CCOCC5)cc4)n3)c2CO)cc1 [Example 204, N-[3-(4-Amino-6-{[4-(morpholinosulfonyl)phe-nyl]amino}-1,3,5-tri-azin-2-yl)-2-(hydroxy-methyl)phenyl]-4-(tert-butyl)benzamide] | 1.3
14 | CC(C)(C)c1ccc(C(=O)Nc2cccc(-c3nc(N)nc(Nc4ccc(O)cc4)n3)c2CO)cc1 [Example 65, N-(3-{4-Amino-6-[(4-hy-droxyphenyl)amino]-1,3,5-triazin-2-yl}-2-(hydroxymethyl)phenyl)-4-(tert-butyl)benza-mide] | 0.6
15 | Cc1c(NC(=O)c2ccc(C(C)(C)C)cc2)cccc1-c1ncnc(Nc2ccc(C(=O)NC(CO)CO)cc2)n1 [Example 19, 4-(tert-Butyl)-N-{3-[4-({4-[(1,3-dihydroxypropan-2-yl)carbamoyl]phenyl}amino)-1,3,5-triazin-2-yl]-2-methyl-phenyl}benzamide] | 6.1
16 | COCCOc1ccc(Nc2nc(N)nc(-c3cccc(NC(=O)c4ccc(C(C)(C)C)cc4)c3CO)n2)cc1OCCOC [Example 90, N-[3-(4-Amino-6-{[3,4-bis(2-methoxyethoxy)phenyl]amino}-1,3,5-tri-azin-2-yl)-2-(hydroxy-methyl)phenyl]-4-(tert-butyl)benzamide] | 0.7
17 | CC(C)(C)c1ccc(C(=O)Nc2cccc(-c3nc(N)nc(Nc4ccc(S(N)(=O)=O)cc4)n3)c2CO)cc1 [Example 118, N-(3-{4-Amino-6-[(4-sulfa-moylphenyl)amino]-1,3,5-triazin-2-yl}-2-(hydroxymethyl)phe-nyl)-4-(tert-butyl)benz-amide] | 0.8
18 | CC(C)(C)c1ccc(C(=O)Nc2cccc(-c3nc(N)nc(Nc4ccc(C[C@H]5COC(=O)N5)cc4)n3)c2CO)cc1 [Example 203, N-{3-[4-Amino-6-({4-[(2-oxooxazolidin-4-yl)methyl]phenyl}amino)-1,3,5-triazin-2-yl]-2-(hydroxymethyl)phe-nyl}-4-(tert-butyl) benzamide] | 0.4
19 | Cc1c(NC(=O)c2ccc(C(C)(C)C)cc2)cccc1-c1nc(N)nc(Nc2ccc(N3CCOC(CO)C3)cc2)n1 (centres unmarked) [Example 92, N-{3-[4-Amino-6-({4-[2-(hydroxymethyl)morpho-lin]phenyl}amino)-1,3,5-triazin-2-yl]-2-methylphenyl}-4-(tert-butyl)benzamide] | 0.9
20 | CCN(CC)c1ccc(Nc2nc(N)nc(-c3cccc(N4CCc5cc(C6CC6)cc(F)c5C4=O)c3CO)n2)cc1 [Example 245, 2-[3-(4-Amino-6-{[4-(di-ethylamino)phenyl]a-mino}-1,3,5-triazin-2-yl)-2-(hydroxymethyl)phenyl]-6-cyclopropyl-8-fluoro-3,4-dihydro-isoquinolin-1(2H)-one] | 5.6
